The results in this text go back to US10820591B2, “Substituted sulfonyl amides for controlling animal pests” (Bayer Aktiengesellschaft, priority 2016, dated 2020).

For this test, the system named is Meloidogyne incognita. The test can be described thus: Meloidogyne incognita test (sand, lettuce, gall formation). It counts as in vivo. The conditions noted are these: Meloidogyne incognita, 336 h, 20 ppm, after 14 days; read-out: nematicidal efficacy (formation of galls). The protocol: Meloidogyne incognita Test [table] To produce a suitable active compound preparation, 1 part by weight of active compound is mixed with the stated amount of solvent and the concentrate is diluted to the desired concentration with water. Vessels are filled with sand, active compound solution, an egg/larvae suspension of the southern root-knot nematode (Meloidogyne incognita) and lettuce seeds. The lettuce seeds germinate and the plants develop. The galls develop on the roots. After 14 days, the nematicidal efficacy in % is determined by the formation of galls. 100% means that no galls were found; 0% means that the number of galls on the treated plants corresponds to the untreated control.
Turning to `O=C(NS(=O)(=O)c1ccc(Cl)cc1)c1cn(Cc2c(F)cccc2F)cn1` [I-001], the pest or weed control at 20 ppm was found to be 90%.

In the case of `COc1ccc(Cl)c(S(=O)(=O)NC(=O)c2cn(Cc3c(F)cccc3F)cn2)c1` [I-002], the pest or weed control at 20 ppm turned out to be 90%.

For `O=C(NS(=O)(=O)c1ccccc1Cl)c1cn(Cc2c(F)cccc2F)cn1` [I-003], the pest or weed control at 20 ppm is 90%.

Regarding `Cc1nc(C(=O)NS(=O)(=O)C(C)C)cn1-c1c(F)cccc1F` [I-005], the pest or weed control at 20 ppm is 100%.

`O=C(NS(=O)(=O)c1ccccc1Cl)c1ncn(CCC(F)(F)F)c1I` [I-008]: the pest or weed control at 20 ppm is 100%.

Take `CC(C)S(=O)(=O)NC(=O)c1ncn(CCC(F)(F)F)c1Br` [I-009]: the pest or weed control at 20 ppm is 90%.

Consider `O=C(NS(=O)(=O)c1ccccc1Cl)c1ncn(CCC(F)(F)F)c1Br` [I-011], for which the pest or weed control at 20 ppm turned out to be 70%.

Regarding `O=C(NS(=O)(=O)c1ccc(Cl)cc1)c1ncn(CCC(F)(F)F)c1Cl` [I-012], the pest or weed control at 20 ppm amounted to 100%.

`O=C(NS(=O)(=O)c1ccc(Cl)cc1Cl)c1ncn(CC(F)(F)F)c1Cl` [I-013]: the pest or weed control at 20 ppm turned out to be 70%.

For `O=C(NS(=O)(=O)c1ccc(Cl)cc1Cl)c1cn(CC(F)(F)F)cn1` [I-014], the pest or weed control at 20 ppm turned out to be 90%.

Consider `O=C(NS(=O)(=O)c1cc(Cl)ccc1Cl)c1ncn(CCC(F)(F)F)c1Cl` [I-015], for which the pest or weed control at 20 ppm turned out to be 90%.

Consider `O=C(NS(=O)(=O)c1c(Cl)cccc1Cl)c1ncn(CC(F)(F)F)c1Cl` [I-016], for which the pest or weed control at 20 ppm was determined as 90%.

`Cc1ccccc1S(=O)(=O)NC(=O)c1cn(CCC(F)(F)F)cn1` [I-017]: the pest or weed control at 20 ppm is 90%.

For `O=C(NS(=O)(=O)c1cccc(C(F)(F)F)c1)c1ncn(CCC(F)(F)F)c1Cl` [I-018], the pest or weed control at 20 ppm was 90%.

Consider `O=C(NS(=O)(=O)c1cccc(C(F)(F)F)c1)c1cn(CC(F)(F)F)cn1` [I-019], for which the pest or weed control at 20 ppm was 90%.

In the case of `O=C(NS(=O)(=O)c1cccc(Cl)c1)c1ncn(CCC(F)(F)F)c1Cl` [I-020], the pest or weed control at 20 ppm turned out to be 90%.

Regarding `O=C(NS(=O)(=O)c1ccc(C(F)(F)F)cc1)c1ncn(CCC(F)(F)F)c1Cl` [I-021], the pest or weed control at 20 ppm turned out to be 90%.

As for `Cc1ccc(S(=O)(=O)NC(=O)c2cn(CCC(F)(F)F)cn2)cc1` [I-022], the pest or weed control at 20 ppm was 90%.

As to `Cc1ccc(S(=O)(=O)NC(=O)c2ncn(CC(F)(F)F)c2Cl)cc1` [I-023], the pest or weed control at 20 ppm came out at 90%.

With `Cc1ccc(S(=O)(=O)NC(=O)c2cn(CC(F)(F)F)cn2)cc1` [I-024], the pest or weed control at 20 ppm was 90%.

For `O=C(NS(=O)(=O)c1ccc(Cl)cc1)c1cn(CC(F)(F)F)cn1` [I-025], the pest or weed control at 20 ppm came out at 90%.

Turning to `COc1ccc(S(=O)(=O)NC(=O)c2cn(CCC(F)(F)F)cn2)cc1` [I-026], the pest or weed control at 20 ppm stood at 90%.

In the case of `COc1ccc(S(=O)(=O)NC(=O)c2cn(CC(F)(F)F)cn2)cc1` [I-027], the pest or weed control at 20 ppm stood at 90%.

Take `O=C(NS(=O)(=O)Cc1ccccc1)c1ncn(CC(F)(F)F)c1Cl` [I-029]: the pest or weed control at 20 ppm is 70%.

Take `O=C(NS(=O)(=O)c1ccc2c(c1Cl)OC(F)(F)O2)c1ncn(CCC(F)(F)F)c1Cl` [I-030]: the pest or weed control at 20 ppm was 90%.

`CC(=O)Oc1ccc(S(=O)(=O)NC(=O)c2ncn(CCC(F)(F)F)c2Cl)cc1` [I-031]: the pest or weed control at 20 ppm turned out to be 90%.

For `O=C(NS(=O)(=O)c1ccc(OC(F)(F)F)cc1)c1ncn(CCC(F)(F)F)c1Cl` [I-033], the pest or weed control at 20 ppm worked out at 90%.

Regarding `CC(C)Oc1ccc(S(=O)(=O)NC(=O)c2ncn(CCC(F)(F)F)c2Cl)cc1` [I-034], the pest or weed control at 20 ppm came out at 90%.

For `COc1cc(C)c(S(=O)(=O)NC(=O)c2ncn(CCC(F)(F)F)c2Cl)c(C)c1` [I-036], the pest or weed control at 20 ppm amounted to 100%.

Turning to `CCCn1cnc(C(=O)NS(=O)(=O)c2ccccc2)c1Cl` [I-038], the pest or weed control at 20 ppm was determined as 90%.

With `CCCn1cnc(C(=O)NS(=O)(=O)c2ccc(OC)cc2)c1Cl` [I-039], the pest or weed control at 20 ppm came out at 100%.

With `CCCn1cnc(C(=O)NS(=O)(=O)c2ccccc2Cl)c1Cl` [I-040], the pest or weed control at 20 ppm was 70%.

`CCCn1cnc(C(=O)NS(=O)(=O)c2cccc(Cl)c2)c1Cl` [I-041]: the pest or weed control at 20 ppm is 100%.

As for `CCCn1cnc(C(=O)NS(=O)(=O)c2cccc(OC)c2)c1Cl` [I-043], the pest or weed control at 20 ppm stood at 100%.

Consider `CC(C)CCn1cnc(C(=O)NS(=O)(=O)c2ccccc2)c1Cl` [I-044], for which the pest or weed control at 20 ppm turned out to be 100%.

As for `COc1ccc(S(=O)(=O)NC(=O)c2ncn(CCC(C)C)c2Cl)cc1` [I-045], the pest or weed control at 20 ppm stood at 100%.

`CC(C)CCn1cnc(C(=O)NS(=O)(=O)c2ccc(Cl)cc2)c1Cl` [I-046]: the pest or weed control at 20 ppm is 100%.

For `COc1cccc(S(=O)(=O)NC(=O)c2ncn(CCC(C)C)c2Cl)c1` [I-047], the pest or weed control at 20 ppm came out at 100%.

Take `COc1ccccc1S(=O)(=O)NC(=O)c1ncn(CCC(C)C)c1Cl` [I-048]: the pest or weed control at 20 ppm came to 90%.

For `O=C(NS(=O)(=O)c1ccccc1)c1ncn(CCCCl)c1Cl` [I-049], the pest or weed control at 20 ppm turned out to be 90%.

Consider `COc1ccc(S(=O)(=O)NC(=O)c2ncn(CCCCl)c2Cl)cc1` [I-050], for which the pest or weed control at 20 ppm worked out at 90%.

`O=C(NS(=O)(=O)c1cccc(Cl)c1)c1ncn(CCCCl)c1Cl` [I-051]: the pest or weed control at 20 ppm turned out to be 90%.

On to `O=C(NS(=O)(=O)c1ccc(Cl)cc1)c1ncn(CCCCl)c1Cl` [I-052], for which the pest or weed control at 20 ppm was found to be 90%.

On to `COc1cccc(S(=O)(=O)NC(=O)c2ncn(CCCCl)c2Cl)c1` [I-053], for which the pest or weed control at 20 ppm is 90%.

Regarding `O=C(NS(=O)(=O)c1ccccc1)c1ncn(CCOC(F)(F)F)c1Cl` [I-054], the pest or weed control at 20 ppm is 90%.

As for `COc1ccc(S(=O)(=O)NC(=O)c2ncn(CCOC(F)(F)F)c2Cl)cc1` [I-055], the pest or weed control at 20 ppm came out at 90%.

In the case of `O=C(NS(=O)(=O)c1cccc(Cl)c1)c1ncn(CCOC(F)(F)F)c1Cl` [I-056], the pest or weed control at 20 ppm came out at 90%.

With `O=C(NS(=O)(=O)c1ccc(Cl)cc1)c1ncn(CCOC(F)(F)F)c1Cl` [I-057], the pest or weed control at 20 ppm turned out to be 100%.

Consider `COc1cccc(S(=O)(=O)NC(=O)c2ncn(CCOC(F)(F)F)c2Cl)c1` [I-058], for which the pest or weed control at 20 ppm was 70%.

Turning to `O=C(NS(=O)(=O)c1cccc(Cl)c1)c1ncn(C2CC2C(F)(F)F)c1Cl` (centres unmarked) [I-061], the pest or weed control at 20 ppm was 90%.

Turning to `O=C(NS(=O)(=O)c1ccc(Cl)cc1)c1ncn(C2CC2C(F)(F)F)c1Cl` (centres unmarked) [I-062], the pest or weed control at 20 ppm was found to be 90%.

As for `COc1cccc(S(=O)(=O)NC(=O)c2ncn(C3CC3C(F)(F)F)c2Cl)c1` (centres unmarked) [I-063], the pest or weed control at 20 ppm came out at 100%.

As to `COc1ccccc1S(=O)(=O)NC(=O)c1ncn(C2CC2C(F)(F)F)c1Cl` (centres unmarked) [I-064], the pest or weed control at 20 ppm was determined as 100%.

For the compound `O=C(NS(=O)(=O)c1cccc(Cl)c1)c1ncn(C2CCCC2C(F)(F)F)c1Cl` (centres unmarked) [I-065], the pest or weed control at 20 ppm was determined as 90%.

Regarding `O=C(NS(=O)(=O)c1ccc(Cl)cc1)c1ncn(C2CCCC2C(F)(F)F)c1Cl` (centres unmarked) [I-066], the pest or weed control at 20 ppm was determined as 90%.

`COc1cccc(S(=O)(=O)NC(=O)c2ncn(C3CCCC3C(F)(F)F)c2Cl)c1` (centres unmarked) [I-067]: the pest or weed control at 20 ppm came to 70%.

With `COc1ccccc1S(=O)(=O)NC(=O)c1ncn(C2CCCC2C(F)(F)F)c1Cl` (centres unmarked) [I-068], the pest or weed control at 20 ppm came to 90%.

Regarding `CC(CC(F)(F)F)n1cnc(C(=O)NS(=O)(=O)c2ccccc2)c1Cl` (centres unmarked) [I-069], the pest or weed control at 20 ppm stood at 100%.

In the case of `CC(CC(F)(F)F)n1cnc(C(=O)NS(=O)(=O)c2ccccc2Cl)c1Cl` (centres unmarked) [I-071], the pest or weed control at 20 ppm worked out at 100%.

For `CC(CC(F)(F)F)n1cnc(C(=O)NS(=O)(=O)c2cccc(Cl)c2)c1Cl` (centres unmarked) [I-072], the pest or weed control at 20 ppm is 100%.

Consider `COc1cccc(S(=O)(=O)NC(=O)c2ncn(C(C)CC(F)(F)F)c2Cl)c1` (centres unmarked) [I-074], for which the pest or weed control at 20 ppm worked out at 100%.

On to `COc1ccccc1S(=O)(=O)NC(=O)c1ncn(C(C)CC(F)(F)F)c1Cl` (centres unmarked) [I-075], for which the pest or weed control at 20 ppm worked out at 70%.

On to `COc1ccc(S(=O)(=O)NC(=O)c2ncn(CC(F)(F)C(F)(F)F)c2Cl)cc1` [I-076], for which the pest or weed control at 20 ppm was 90%.

Regarding `O=C(NS(=O)(=O)c1ccccc1)c1ncn(CC(F)(F)C(F)(F)F)c1Cl` [I-077], the pest or weed control at 20 ppm came out at 100%.

Regarding `O=C(NS(=O)(=O)c1ccc(Cl)cc1)c1ncn(CC(F)(F)C(F)(F)F)c1Cl` [I-078], the pest or weed control at 20 ppm came to 100%.

Take `O=C(NS(=O)(=O)c1cccc(Cl)c1)c1ncn(CC(F)(F)C(F)(F)F)c1Cl` [I-079]: the pest or weed control at 20 ppm turned out to be 100%.

Take `O=C(NS(=O)(=O)c1ccccc1Cl)c1ncn(CC(F)(F)C(F)(F)F)c1Cl` [I-080]: the pest or weed control at 20 ppm worked out at 90%.

Consider `COc1ccccc1S(=O)(=O)NC(=O)c1ncn(CC(F)(F)C(F)(F)F)c1Cl` [I-081], for which the pest or weed control at 20 ppm came out at 90%.

`COc1cccc(S(=O)(=O)NC(=O)c2ncn(CC(F)(F)C(F)(F)F)c2Cl)c1` [I-082]: the pest or weed control at 20 ppm was 100%.

As to `O=C(NS(=O)(=O)Cc1ccc(Cl)cc1)c1ncn(CCC(F)(F)F)c1Cl` [I-084], the pest or weed control at 20 ppm is 100%.

For the compound `O=C(NS(=O)(=O)c1cc(Cl)c(Cl)s1)c1ncn(CCC(F)(F)F)c1Cl` [I-086], the pest or weed control at 20 ppm came out at 70%.

Consider `COc1cc(OC)cc(S(=O)(=O)NC(=O)c2ncn(CCC(F)(F)F)c2Cl)c1` [I-087], for which the pest or weed control at 20 ppm was found to be 70%.

`CCOc1ccc(S(=O)(=O)NC(=O)c2ncn(CCC(F)(F)F)c2Cl)cc1` [I-088]: the pest or weed control at 20 ppm was 90%.

For `CSc1ccc(S(=O)(=O)NC(=O)c2ncn(CCC(F)(F)F)c2Cl)cc1` [I-089], the pest or weed control at 20 ppm is 100%.
